# According to patent US6747052B2, “Substituted indole-2-carboxylic acid benzylidene-hydrazides and analogs as activators of caspases and inducers of apoptosis and the use thereof” (Cytovia, Inc., priority 2000, dated 2004):
# Entries after “also recorded” stand apart in the source; their conditions may differ. Where two headings read alike, the source gives them in different places.
# Columns and labels:
# HeLa cells = assay: Clonogenic survival of HeLa cells; assay type: cell-based; details: for IC50: Homo sapiens
# Method: HeLa cells were grown according to media component mixtures designated by American Type Culture Collection +10% FCS (Invitrogen Corporation, Life Technologies division), in a 5% CO2-95% humidity incubator at 37° C. In a well of a 96 well plate, 30,000 cells were seeded and treated with testing compound at the indicated concentrations for 48 hr in a 5% CO2-95% humidity incubator at 37° C. Control wells were treated with the same amount of solvent (DMSO) as the compound samples. After the indicated treatment time, the supernatant was removed to a sterile culture tube and the wells washed with phosphate buffered saline, and the adherent cells trypsinized for 5 min. The trypsinzed cells were added to the culture supernatant, cells were collected (1,200 rpm, 10 min), washed with phosphate buffered saline, and resupended in fresh media. The cells were counted for trypan blue negative cells, and the cells diluted with fresh media to 1,000 cells/ml. To a well of a 24-well plate, 0.1 ml of the cell suspension was added along with 1 ml of fresh media (cell suspensions were passed through a 22G needle several times just before plating to form single cell suspensions). Plates are incubated in a 5% CO2-95% humidity incubator at 37° C. for 5-7 days. Colonies are counted when the sizes reached greater than 50 cells per colony. Cells are washed with phosphate buffered saline, fixed with 100% methanol for 15 min, and then stained with 0.5% gentian violet for 15 min. Colonies are rinsed with water and the colonies counted and the fraction surviving expressed as the percentage of the number of control colonies.
# Jurkat cells [1] = assay: Nuclear fragmentation in Jurkat cells (Syto16 staining); assay type: cell-based; details: 5 μM, 24 h
# Method: The ability of 5-chloro-3-methyl-indole-2-carboxylic acid (4-nitrobenzylidene)-hydrazide to induce nuclear fragmentation, an indicator of apoptosis, was tested by treatment of Jurkat cells with the test compound followed by staining of the nucleus with Syto16, a fluorescent DNA dye (Molecular Probes, Eugene, Oreg.). The nuclei of Jurkat cells treated with vehicle control (DMSO) are seen to be round with dispersed chromatin that is moderately stained with Syto16 (FIG. 1A).
# ZR-75-1 [2] = assay: Caspase cascade activation (N-(Ac-DEVD)-N'-ethoxycarbonyl-R110 fluorogenic substrate) in ZR-75-1 cells; assay type: cell-based, Human; details: ZR-75-1, 24 h incubation with compound; for EC50: Homo sapiens; for Caspase activity Ratio (net RFU of test compound to control): 3 h substrate reading
# Method: (§1) Human breast cancer cell lines T-47D and ZR-75-1 were grown according to media component mixtures designated by American Type Culture Collection +10% FCS (Invitrogen Corporation, Life Technologies division), in a 5% CO2-95% humidity incubator at 37° C. T-47D and ZR-75-1 cells were maintained at a cell density between 30 and 80% confluency at a cell density of 0.1 to 0.6×10^6 cells/ml. Cells were harvested at 600×g and resuspended at 0.65×10^6 cells/ml into appropriate media +10% FCS. An aliquot of 45 μl of cells was added to a well of a 96-well microtiter plate containing 5 μl of a 10% DMSO in RPMI-1640 media solution containing 0.16 to 100 μM of 5-chloro-3-methyl-indole-2-carboxylic acid (4-nitrobenzylidene)-hydrazide (Compound A) or other test compound (0.016 to 10 μM final). An aliquot of 45 μl of cells was added to a well of a 96-well microtiter plate containing 5 μl of a 10% DMSO in RPMI-1640 media solution without test compound as the control sample. The samples were mixed by agitation and then incubated at 37° C. for 24 h in a 5% CO2-95% humidity incubator. After incubation, the samples were removed from the incubator and 50 μl of a solution containing 20 μM of N-(Ac-DEVD)-N′-ethoxycarbonyl-R110 fluorogenic substrate (Cytovia, Inc.; WO99/18856), 20% sucrose (Sigma), 20 mM DTT (Sigma), 200 mM NaCl (Sigma), 40 mM Na PIPES buffer pH 7.2 (Sigma), and 500 μg/ml lysolecithin (Calbiochem) was added. The samples were mixed by agitation and incubated at room temperature. Using a fluorescent plate reader (Model 1420 Wallac Instruments), an initial reading (T=0) was made approximately 1-2 min after addition of the substrate solution, employing excitation at 485 nm and emission at 530 nm, to determine the background fluorescence of the control sample. After the 3 h incubation, the samples were read for fluorescence as above (T=3 h).
# (§2) The Relative Fluorescence Unit values (RFU) were used to calculate the sample readings as follows: RFU(T=3h)−Control RFU(T=0)=Net RFU(T=3h)
# (§3) The activity of caspase cascade activation was determined by the ratio of the net RFU value for 5-chloro-3-methyl-indole-2-carboxylic acid (4-nitrobenzylidene)-hydrazide (Compound A) or other test compound to that of control samples. The EC50 (nM) was determined by a sigmoidal dose-response calculation (Prism 2.0, GraphPad Software Inc.).
# ZR-75-1 [3] = assay: Inhibition of cell proliferation (GI50, CellTiter 96 AQueous One) in ZR-75-1 cells; assay type: cell-based; details: Homo sapiens, ZR-75-1, 48 h; read-out: GI50 (dose for 50% inhibition of cell proliferation)
# Method: (§4) T-47D and ZR-75-1 cells were grown and harvested as in Example 1. An aliquot of 90 μl of cells (2.2×10^4 cells/ml) was added to a well of a 96-well microtiter plate containing 10 μl of a 10% DMSO in RPMI-1640 media solution containing 1 nM to 100 μM of 5-chloro-3-methyl-indole-2-carboxylic acid (4-nitrobenzylidene)-hydrazide (Compound A) or 5-chloro-3-phenyl-indole-2-carboxylic acid (4-nitrobenzylidene)-hydrazide (Compound B) (0.1 nM to 10 μM final). An aliquot of 90 μl of cells was added to a well of a 96-well microtiter plate containing 10 μl of a 10% DMSO in RPMI-1640 media solution without compound as the control sample for maximal cell proliferation (AMax). The samples were mixed by agitation and then incubated at 37° C. for 48 h in a 5% CO2-95% humidity incubator. […] Using an absorbance plate reader (Model 1420 Wallac Instruments), an initial reading (T=0) was made approximately 1-2 min after addition of the solution, employing absorbance at 490 nm. This determines the possible background absorbance of the test compounds. No absorbance for 5-chloro-3-methyl-indole-2-carboxylic acid (4-nitrobenzylidene)-hydrazide or 5-chloro-3-phenyl-indole-2-carboxylic acid (4-nitrobenzylidene)-hydrazide was found at 490 nm. After the 2-4 h incubation, the samples were read for absorbance as above (ATest). […]
# T-47D [4] = assay: Inhibition of cell proliferation (GI50, CellTiter 96 AQueous One) in T-47D cells; assay type: cell-based; details: Homo sapiens, T47D, 48 h, read-out: GI50 (dose for 50% inhibition of cell proliferation)
# Method: as §4
# Jurkat cells [5] = assay: Mitotic arrest in Jurkat cells (mitotic figures, Syto 16); assay type: cell-based; details: Homo sapiens, 6 h
# Method: Jurkat cells were incubated with a range of concentrations of 5-chloro-3-methyl-indole-2-carboxylic acid (4-nitrobenzylidene)-hydrazide (0.02 μM to 5 μM) for 6 h under normal growth conditions; control cultures were treated with DMSO vehicle. The cells were then treated for 20 min. with 800 nM Syto 16 (Molecular Probes, Eugene, Oreg.). Cytospin preparations were then prepared and the samples were viewed by fluorescent microscopy using a fluorescein filter set. For each concentration of test compound, the number of mitotic figures were counted and expressed as a percentage of the total number of cells. Three fields from each condition were evaluated and the mean and SEM were calculated and plotted as a function of drug concentration (FIG. 2).
# T-47D [6] = assay: Caspase cascade activation (N-(Ac-DEVD)-N'-ethoxycarbonyl-R110 fluorogenic substrate) in T-47D cells; assay type: cell-based, Human; details: 24 h incubation with compound; for Caspase activity Ratio (net RFU of test compound to control): 3 h substrate reading; for EC50: Homo sapiens, T47D
# Method: as §1, §2, §3
# T47D cells = assay: Cell cycle arrest and apoptosis in T47D cells (propidium iodide flow cytometry); assay type: cell-based, Human; details: 10 μM, 48 h
# Method: T47D, a breast cancer cell line, was maintained and harvested as described in Example 1. 1×10^6 Cells were treated with 10 μM of 5-chloro-3-methyl-indole-2-carboxylic acid (4-nitrobenzylidene)-hydrazide for 48 h at 37° C. As a control, cells were also incubated with equivalent amount of solvent (DMSO). Cells were harvested at 1,200 rpm and washed twice with 5 mM EDTA/PBS. Cells were then resuspended in 300 μl EDTA/PBS and 700 μl of 100% ethanol, vortexed and incubated at room temperature for 1 h. Samples were spun down at 1,200 rpm for 5 min and the supernatant was removed. A solution containing 100 μg/ml of propidium iodide and 1 mg/ml of RNAse A (fresh) was added to the samples and incubated for 1 h at room temperature. Samples were then transferred to 12×75 mm polystyrene tubes and analyzed on a flow cytometer. All flow cytometry analyses were performed on FACScalibur (Becton Dickinson) using Cell Quest analysis software. The x-axis plotted the amount of fluorescence and the y-axis is plotted the number of cells with the indicated fluorescence. […] An increase in the sub-diploid DNA content of cells (marker M1 region, FIG. 3) is also seen to increase from 2% to 25% with compound treatment. The sub-diploid amount of DNA (M1) is indicative of apoptotic cells which have undergone DNA degradation or fragmentation.
# [7] = 48 hr treatment, read-out: IC50 of colony forming ability
# [8] = 48 h treatment, FIG. 4 legend, read-out: IC50 of colony formation
Structure (SMILES),IC50 (HeLa cells; [7]),IC50 (HeLa cells; [8]),Nuclear morphology (nuclear fragmentation) (Jurkat cells [1]),EC50 (ZR-75-1 [2]),Caspase activity Ratio (net RFU of test compound to control) (ZR-75-1 [2]),GI50 (ZR-75-1 [3]),GI50 (T-47D [4]),EC50 (Jurkat cells [5]),Caspase activity Ratio (net RFU of test compound to control) (T-47D [6]),EC50 (T-47D [6]),G2/M DNA content (M4) of cells (T47D cells),Sub-diploid DNA content of cells (M1) (T47D cells; control 2%),Increase in potency in clonogenic survival assay versus Compound A (HeLa cells; 48 hr treatment)
"Cc1c(C(=O)NN=Cc2ccc([N+](=O)[O-])cc2)[nH]c2ccc(Cl)cc12 [Compound A, 5-chloro-3-methyl-indole-2-carboxylic acid (4-nitrobenzylidene)-hydrazide]",~3000 nM,~3000 nM,shrunken and fragmented nuclei,532 nM,7.0,12 µM,2000 nM,~800 nM,6.9,2000 nM,increase in G2/M DNA content; also recorded: an increase in the G2/M (M4),25%,–
"Cc1c(C(=O)NN=Cc2ccc(N(C)C)cc2)[nH]c2ccc(Cl)cc12 [Example 3, 5-Chloro-3-methyl-indole-2-carboxylic Acid (4-Dimethylaminobenzylidene)-hydrazide]",–,–,–,449 nM,7.2,–,–,–,6.0,939 nM,–,–,–
"Cc1ccc(C=NNC(=O)c2[nH]c3ccc(C)cc3c2-c2ccccc2)cc1 [Example 13, 5-Methyl-3-phenyl-indole-2-carboxylic Acid (4-Methylbenzylidene)-hydrazide]",–,–,–,100 nM,7.6,–,–,–,3.1,300 nM,–,–,–
"Cc1ccc2[nH]c(C(=O)NN=Cc3ccc(N(C)C)cc3)c(-c3ccccc3)c2c1 [Example 14, 5-Methyl-3-phenyl-indole-2-carboxylic Acid (4-Dimethylaminobenzylidene)-hydrazide]",–,–,–,830 nM,4.1,–,–,–,3.5,2400 nM,–,–,–
"O=C(NN=Cc1ccc([N+](=O)[O-])cc1)c1[nH]c2ccc(Cl)cc2c1-c1ccccc1 [Compound B, 5-chloro-3-phenyl-indole-2-carboxylic acid (4-nitrobenzylidene)-hydrazide]",~300 nM,~300 nM,–,276 nM,2.9,–,100 nM,–,3,501 nM,–,–,10 fold
"Cc1c(C(=O)NN=Cc2ccc(Cl)cc2)[nH]c2ccc(Cl)cc12 [Example 21, 5-Chloro-3-methyl-indole-2-carboxylic Acid (4-Chlorobenzylidene)-hydrazide]",–,–,–,2770 nM,3.5,–,–,–,4.2,3650 nM,–,–,–
"Cc1ccc(C=NNC(=O)c2[nH]c3ccc(Cl)cc3c2C)cc1 [Example 1, 5-Chloro-3-methyl-indole-2-carboxylic Acid (4-Methylbenzylidene)-hydrazide]",–,–,–,187 nM,2.6,–,–,–,3.7,253 nM,–,–,–
"Cc1c(C(=O)NN=Cc2ccccc2)[nH]c2ccc(Cl)cc12 [Example 2, 5-Chloro-3-methyl-indole-2-carboxylic Acid (Benzylidene)-hydrazide]",–,–,–,1490 nM,4.1,–,–,–,5.1,4280 nM,–,–,–
